Laboratory results published in PubChem BioAssay (NCI).
Values joined by “and” are separate entries in the source; they are usually repeats but may differ in a detail not shown here. Equal entries are not always repeated.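 In this assay, cells in 96-well plates receive the compound at five concentrations for 48 hours. Endpoints are linearly interpolated between the surrounding concentrations. GI50: concentration for 50% inhibition of growth. TGI denotes the concentration required for complete inhibition of growth.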

Tests used:
Experiment in all cases: growth of human tumour cells (NCI), 48 h
[1] = test system: MALME-3M melanoma
[2] = test system: UACC-62 melanoma
[3] = test system: HOP-62 NSCLC
[4] = test system: OVCAR-8 ovarian
[5] = test system: OVCAR-5 ovarian
[6] = test system: RXF 393 renal
[7] = test system: MDA-MB-231 breast
[8] = test system: SF-539 CNS
[9] = test system: UO-31 renal
[10] = test system: SF-295 CNS

Row | SMILES | TGI [1] | TGI [2] | TGI [3] | TGI [4] | TGI [5] | TGI [6] | TGI [7] [µM] | TGI [8] | TGI [9] | TGI [10] [µM] | GI50 [1] [µM] | GI50 [2] [µM] | GI50 [3] [µM] | GI50 [5] [µM] | GI50 [8] [µM]
1 | Cc1cc(C(C)(C)C)c(OCCCN2CCOCC2)c(C(C)(C)C)c1 | 35 µM | 29.8 µM | 38.6 µM | 35.4 µM | 33 µM | 31.9 µM | 32.2 | 33.7 µM | 32.7 µM | 33.1 |  |  |  |  | 
2 | Nc1ncnc2c(C3OC(CO)C(O)C3O)c[nH]c12 (stereo not drawn) | 0.0868 µM and 0.0571 µM | 0.0496 µM and 0.0377 µM | 0.342 µM and 0.0897 µM | 0.0845 µM and 0.771 µM | 0.657 µM and 0.675 µM | 0.126 µM and 0.0746 µM | > 100 | 0.0546 µM and 0.0374 µM | 0.118 µM and 0.258 µM | 1.02 | 0.011 | 0.0101 | 0.0136 | < 0.0119 | < 0.0117
3 | Cc1ccc2c(=O)c3c(O)c4c(cc3n(C)c2c1)OC(C)(C)C=C4 | > 10 µM | > 10 µM | > 10 µM | > 10 µM | > 10 µM | > 10 µM | > 10 | > 10 µM |  | > 10 |  |  |  |  | 
4 | O=C(NC(Cc1c[nH]c2ccccc12)C(=O)O)/C(=C/c1ccccc1)NC(=O)c1ccccc1 (stereo not drawn) | > 100 µM | > 100 µM | > 100 µM | > 100 µM | > 100 µM | > 100 µM | > 100 | > 100 µM | > 100 µM | > 100 |  |  |  |  | 
5 | COc1ccc(/C=C(\C#N)c2nc(-c3cc4ccccc4oc3=O)cs2)cc1 | 91.3 µM | 49.3 µM | 29.5 µM | 44.4 µM | > 100 µM | 45.4 µM | 31 | 54.9 µM | 57.4 µM | 55.9 |  |  |  |  | 
6 | Cc1cc2nnn(C3CCCO3)c2cc1C (stereo not drawn) | > 100 µM | > 100 µM | > 100 µM | > 100 µM | > 100 µM | > 100 µM | > 100 | > 100 µM |  | > 100 |  |  |  |  | 
7 | CCCNC(=O)Cn1c(-c2ccccc2)cc2ccccc21 | > 100 µM | > 100 µM | > 100 µM | > 100 µM | > 100 µM | 57.3 µM | > 100 | > 100 µM | > 100 µM | > 100 |  |  |  |  | 
8 | NC(=S)NS(=O)(=O)c1ccc(Cl)cc1Cl | > 100 µM | > 100 µM | > 100 µM | > 100 µM | > 100 µM | > 100 µM | > 100 | > 100 µM | > 100 µM | > 100 |  |  |  |  | 
9 | CC(=O)Oc1ccc(-c2c(OC(C)=O)c(OC(C)=O)c(-c3ccc(OC(C)=O)c(OC(C)=O)c3)c(OC(C)=O)c2OC(C)=O)cc1 | 30.3 µM | 33.7 µM |  | 28.2 µM | 25 µM | 36.1 µM | 35.4 | 34.3 µM | 28.8 µM | 21.3 |  |  |  |  | 
10 | Clc1cccc(Cl)c1C1ON=C(c2ccccc2)N1C12CC3CC(CC(C3)C1)C2 (stereo not drawn) | 47 µM | > 100 µM | > 100 µM | > 100 µM | > 100 µM | > 100 µM | > 100 | > 100 µM | > 100 µM | > 100 |  |  |  |  | 
11 | NC(Cc1ccccc1)C(=O)O (stereo not drawn) | > 100 µM | > 100 µM | > 100 µM | > 100 µM | > 100 µM | > 100 µM | > 100 | > 100 µM | > 100 µM | > 100 |  |  |  |  | 
12 | C1CN(C23OC4(N5CCOCC5)C5C6CC(C7C6C4C72)C53)CCO1 (stereo not drawn) | > 100 µM | > 100 µM | > 100 µM | > 100 µM | > 100 µM | > 100 µM | > 100 | > 100 µM | > 100 µM | > 100 |  |  |  |  | 
13 | CCCS(=O)OC1C(C2COC(C)(C)O2)OC2OC(C)(C)OC21 (stereo not drawn) | 18 µM | 35.2 µM | 32.5 µM | 29.3 µM | 26.1 µM | 25.5 µM | 32.6 | 38.4 µM | 28.3 µM | 36.1 |  |  |  |  | 
14 | CCOC(=O)Cn1c(C)nc2nn(Cc3ccccc3)cc2c1=O | > 100 µM | > 100 µM | > 100 µM | > 100 µM | > 100 µM | > 100 µM | > 100 | > 100 µM | > 100 µM | > 100 |  |  |  |  | 
15 | CCOC(=O)c1c(C)n(CCN2CCN(C)CC2)c2ccc(OC)cc12 | 74.6 µM | 30.7 µM | > 100 µM | > 100 µM | > 100 µM | > 100 µM | > 100 | 87.1 µM | > 100 µM | > 100 |  |  |  |  | 
16 | CC(CN(C)C)C(O)(c1ccccc1)c1ccccc1 (stereo not drawn) | > 100 µM | > 100 µM | > 100 µM | > 100 µM | > 100 µM | > 100 µM | > 100 | > 100 µM | > 100 µM | > 100 |  |  |  |  | 
17 | CC1=C(C(=O)OC(C)C)C(c2cccc([N+](=O)[O-])c2)C(C(=O)OC(CO[N+](=O)[O-])CO[N+](=O)[O-])=C(C)N1 (stereo not drawn) | > 100 µM | 9.58 µM | 16.5 µM | > 100 µM | 21.5 µM | 58.1 µM | > 20.7 | 16.3 µM | > 50.1 µM | 0.991 |  |  |  |  | 

Row | SMILES | TGI [1] | TGI [2] | TGI [3] | TGI [4] | TGI [5] | TGI [6] | TGI [7] [µM] | TGI [8] | TGI [9] | TGI [10] [µM] | GI50 [1] [µM] | GI50 [2] [µM] | GI50 [3] [µM] | GI50 [5] [µM] | GI50 [8] [µM]
18 | C=C(Cl)C(=C)CCC(Cl)C(C)(C)Cl (stereo not drawn) | > 100 µM | > 100 µM | > 100 µM |  | > 100 µM | > 100 µM | > 100 | > 100 µM | > 100 µM | > 100 |  |  |  |  | 
19 | O=c1c2cc(Cl)ccc2n2nnc3ccc(NCCNCCO)c1c32 | 5.67 µM | 5.41 µM | 3.03 µM | 2.53 µM | 3.42 µM | 3.45 µM | 2.81 | 3.32 µM | 3.49 µM | 1.38 |  |  |  |  | 
20 | Nc1ncc(Cc2nn3c(COc4ccc(Cl)cc4)nnc3s2)s1 | > 100 µM | > 100 µM | > 100 µM | > 100 µM | > 100 µM | > 100 µM | > 100 | > 100 µM | > 100 µM | > 100 |  |  |  |  | 
21 | Cc1nc2ccccc2n1CCc1nc2ccccc2[nH]1 | > 100 µM | > 100 µM | > 100 µM | > 100 µM | > 100 µM | > 100 µM | > 100 | > 100 µM | > 100 µM | > 100 |  |  |  |  | 
22 | CN(CCc1ccccn1)C(=S)N/N=C/c1ccccn1 | 8.81 µM | 15.7 µM | 3.48 µM |  | 44.6 µM | 2.98 µM | 0.982 | 0.365 µM | 17.8 µM | > 43.5 |  |  |  |  | 
23 | C[C@@H](CC(O)C(O)C(C)(C)O)C1CCC23CC12CCC1[C@@]2(C)CCC(=O)C(C)(C)C2CC(OC2OC(CO)C(O)C(O)C2O)[C@]13C (stereo partly drawn) | > 10 µM | > 10 µM | > 10 µM | > 10 µM | > 10 µM | > 10 µM | > 10 | > 10 µM | > 10 µM | > 10 |  |  |  |  | 
24 | NC(=O)Nc1n[nH]c(-c2ccccc2)n1 | > 100 µM | > 100 µM | > 100 µM | > 100 µM | > 100 µM | > 100 µM | > 100 | > 100 µM | > 100 µM | > 100 |  |  |  |  | 
25 | C=C1C(=O)O[C@H]2[C@@H](O)[C@H](C)CCC/C(C)=C/CC[C@@]3(C)O[C@@H]3C[C@@H]12 | 30.6 µM | 22.6 µM | 56.3 µM | > 51.2 µM | 34.8 µM | 16.4 µM | 31.7 | 11.8 µM | 18.2 µM | 34.9 |  |  |  |  | 
26 | COC(=O)[C@]12CCC(=O)N1[C@H](C(=O)O)Cc1c2[nH]c2ccccc12 | > 100 µM | > 100 µM | > 100 µM | > 100 µM | > 100 µM | > 100 µM | > 100 | > 100 µM | > 100 µM | > 100 |  |  |  |  | 
27 | COc1cc2c(cc1OCc1ccccc1)NC(=O)[C@@H]1C[C@@H](O)CN1C2=O | > 100 µM | > 100 µM | > 100 µM | > 100 µM | > 100 µM | > 100 µM | > 100 | > 100 µM | > 100 µM | > 100 |  |  |  |  | 
28 | CCCCCCCCCCCOCCC1C(C(C)OCCN2CCCC2)OC2OC(C)(C)OC21 (stereo not drawn) | 3.08 µM | 3.28 µM | 4.38 µM | 11.3 µM | 8.94 µM | 7.3 µM | 3.97 | 3.68 µM | 6.51 µM | 5.71 |  |  |  |  | 
29 | Cc1nc(-c2ccc(Cl)cc2)cn2c1nc1ccccc12 | > 100 µM | > 100 µM | > 100 µM | > 100 µM | > 100 µM | > 100 µM | > 100 | > 100 µM | > 100 µM | > 100 |  |  |  |  | 
30 | OCC(CO)CC1COc2ccccc2O1 (stereo not drawn) | > 10 µM | > 10 µM | > 10 µM | > 10 µM | > 10 µM | > 10 µM | > 10 | > 10 µM | > 10 µM | > 10 |  |  |  |  | 
31 | O=C(O)c1cc2c(cc1CC(Cc1ccccc1)C(=O)O)CCC2 (stereo not drawn) | > 100 µM |  | > 100 µM | > 100 µM | > 100 µM | > 100 µM | > 100 | > 100 µM | > 100 µM | > 100 |  |  |  |  | 
32 | c1csc(-c2csc(-c3cccs3)c2)c1 | > 100 µM | > 100 µM | > 100 µM | > 100 µM | > 100 µM | 74 µM | > 100 | > 100 µM | > 100 µM | > 100 |  |  |  |  | 
33 | Oc1cc(Br)cc2cc(Br)cnc12 | 58.2 µM | 5.88 µM | > 100 µM | > 100 µM |  | 10.9 µM | 88.2 | > 100 µM | 29.4 µM | 28 |  |  |  |  | 
